Data reported in ChEMBL document CHEMBL4043287, “A Structure-Activity Relationship Study of Bitopic N6-Substituted Adenosine Derivatives as Biased Adenosine A1 Receptor Agonists” (J Med Chem, 2018).

The molecules below were run against T1, Adenosine receptor A1 (Homo sapiens, UniProt P30542) (assay: Agonist activity at human A1AR expressed in FlpIn-CHO cells assessed as intracellular calcium mobilization by measuring agonist transduction coefficient by Fluo-4 dye-based fluorescence assay).
T1 sequence (P30542 whole entry): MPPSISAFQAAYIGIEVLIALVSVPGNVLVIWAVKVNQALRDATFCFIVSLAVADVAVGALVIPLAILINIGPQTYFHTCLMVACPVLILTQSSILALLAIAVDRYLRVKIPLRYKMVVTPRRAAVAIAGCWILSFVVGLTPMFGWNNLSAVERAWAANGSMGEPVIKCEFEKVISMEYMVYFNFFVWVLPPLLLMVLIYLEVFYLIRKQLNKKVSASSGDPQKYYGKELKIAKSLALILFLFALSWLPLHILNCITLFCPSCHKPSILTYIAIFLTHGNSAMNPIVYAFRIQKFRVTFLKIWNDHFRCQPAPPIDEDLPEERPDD
Assay type: cell-based
For Nc1sc(-c2cccc(C(=O)NCCCCCCNc3ncnc4c3ncn4[C@@H]3O[C@H](CO)[C@@H](O)[C@H]3O)c2)c(-c2cccc(C(F)(F)F)c2)c1C(=O)c1ccccc1, the “log(activity)” value was 6.98.
With Nc1sc(-c2ccc(C(=O)NCCCCCCCNc3ncnc4c3ncn4[C@@H]3O[C@H](CO)[C@@H](O)[C@H]3O)cc2)c(-c2cccc(C(F)(F)F)c2)c1C(=O)c1ccccc1 the “log(activity)” value was 5.58.
Nc1sc(-c2ccc(C(=O)NCCCCCNc3ncnc4c3ncn4[C@@H]3O[C@H](CO)[C@@H](O)[C@H]3O)cc2)c(-c2cccc(C(F)(F)F)c2)c1C(=O)c1ccccc1 was tested, and the “log(activity)” value was 6.11.

The molecules below were run against T1, Adenosine receptor A1 (assay: Agonist activity at human A1AR expressed in FlpIn-CHO cells assessed as intracellular calcium mobilization by Fluo-4 dye-based fluorescence assay relative to control).
Assay type: cell-based
CCNC(=O)[C@H]1O[C@@H](n2cnc3c(N)ncnc32)[C@H](O)[C@@H]1O [NECA] was tested, and the Emax was 54%.
Molecule Nc1sc(-c2cccc(C(=O)NCCCCCCNc3ncnc4c3ncn4[C@@H]3O[C@H](CO)[C@@H](O)[C@H]3O)c2)c(-c2cccc(C(F)(F)F)c2)c1C(=O)c1ccccc1 has an Emax of 48%.
For Nc1sc(-c2ccc(C(=O)NCCCCCCCNc3ncnc4c3ncn4[C@@H]3O[C@H](CO)[C@@H](O)[C@H]3O)cc2)c(-c2cccc(C(F)(F)F)c2)c1C(=O)c1ccccc1, the Emax was 28%.
Molecule Nc1sc(-c2ccc(C(=O)NCCCCCNc3ncnc4c3ncn4[C@@H]3O[C@H](CO)[C@@H](O)[C@H]3O)cc2)c(-c2cccc(C(F)(F)F)c2)c1C(=O)c1ccccc1 has an Emax of 31%.

What follows are molecules tested against T2, Adenosine receptor A3 (Homo sapiens) (UniProt P0DMS8) (assay: Agonist activity at human A3AR expressed in FlpIn-CHO cells assessed as inhibition of forskolin-stimulated cAMP accumulation preincubated for 10 mins followed by forskolin addition measured after 30 mins by Alphascreen assay relative to control).
T2 sequence (whole entry): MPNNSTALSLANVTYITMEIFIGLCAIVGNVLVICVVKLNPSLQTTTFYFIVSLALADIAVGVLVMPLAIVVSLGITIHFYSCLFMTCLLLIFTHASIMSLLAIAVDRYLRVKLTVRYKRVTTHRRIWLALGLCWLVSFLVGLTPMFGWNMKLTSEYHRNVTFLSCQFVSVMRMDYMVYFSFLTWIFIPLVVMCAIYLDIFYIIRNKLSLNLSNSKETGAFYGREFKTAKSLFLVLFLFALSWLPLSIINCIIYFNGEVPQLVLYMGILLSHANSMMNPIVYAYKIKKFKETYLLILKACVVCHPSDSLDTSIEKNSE
Assay type: functional, cell-based
For CCNC(=O)[C@H]1O[C@@H](n2cnc3c(N)ncnc32)[C@H](O)[C@@H]1O [NECA], the Emax was 97%.
In the case of Nc1sc(-c2cccc(C(=O)NCCCCCCNc3ncnc4c3ncn4[C@@H]3O[C@H](CO)[C@@H](O)[C@H]3O)c2)c(-c2cccc(C(F)(F)F)c2)c1C(=O)c1ccccc1, the Emax is reported as 80%.
Nc1sc(-c2ccc(C(=O)NCCCCCCCNc3ncnc4c3ncn4[C@@H]3O[C@H](CO)[C@@H](O)[C@H]3O)cc2)c(-c2cccc(C(F)(F)F)c2)c1C(=O)c1ccccc1 was tested, and the Emax was 56%.

The molecules below were run against Adenosine receptor A2a (Homo sapiens, UniProt P29274) (assay: Agonist activity at human A2A-AR expressed in FlpIn-CHO cells assessed as inhibition of forskolin-stimulated cAMP accumulation preincubated for 40 mins followed by forskolin addition measured after 30 mins by Alphascreen assay).
Chain of Adenosine receptor A2a (P29274 whole entry): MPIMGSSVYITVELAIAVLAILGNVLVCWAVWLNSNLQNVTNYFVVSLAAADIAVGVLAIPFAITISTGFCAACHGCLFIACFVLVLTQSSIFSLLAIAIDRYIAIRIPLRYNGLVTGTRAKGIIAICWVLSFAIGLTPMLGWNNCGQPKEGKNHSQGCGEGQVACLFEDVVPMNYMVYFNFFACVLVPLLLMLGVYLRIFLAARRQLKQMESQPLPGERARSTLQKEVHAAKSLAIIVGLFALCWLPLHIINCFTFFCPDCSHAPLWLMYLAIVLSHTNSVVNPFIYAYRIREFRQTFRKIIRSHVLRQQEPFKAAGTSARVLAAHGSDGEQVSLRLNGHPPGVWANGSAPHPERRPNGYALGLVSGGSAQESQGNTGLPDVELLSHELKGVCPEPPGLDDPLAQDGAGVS
For Nc1sc(-c2ccc(C(=O)NCCCCCCNc3ncnc4c3ncn4[C@@H]3O[C@H](CO)[C@@H](O)[C@H]3O)cc2)c(-c2cccc(C(F)(F)F)c2)c1C(=O)c1ccccc1, the EC50 was 2290 nM.
Nc1sc(-c2cccc(C(=O)NCCCCCCNc3ncnc4c3ncn4[C@@H]3O[C@H](CO)[C@@H](O)[C@H]3O)c2)c(-c2cccc(C(F)(F)F)c2)c1C(=O)c1ccccc1 gave an EC50 of 148 nM.
In the case of Nc1sc(-c2ccc(C(=O)NCCCCCCCNc3ncnc4c3ncn4[C@@H]3O[C@H](CO)[C@@H](O)[C@H]3O)cc2)c(-c2cccc(C(F)(F)F)c2)c1C(=O)c1ccccc1, the EC50 is reported as 4900 nM.
Nc1sc(-c2ccc(C(=O)NCCCCCNc3ncnc4c3ncn4[C@@H]3O[C@H](CO)[C@@H](O)[C@H]3O)cc2)c(-c2cccc(C(F)(F)F)c2)c1C(=O)c1ccccc1 gave an EC50 of 3630 nM.

These molecules were tested against T3, Adenosine receptor A2b (Homo sapiens, UniProt P29275) (assay: Agonist activity at human A2BAR expressed in FlpIn-CHO cells assessed as […] cAMP accumulation preincubated for 40 mins followed by forskolin addition measured after 30 mins by Alphascreen assay).
T3 sequence (P29275 whole entry): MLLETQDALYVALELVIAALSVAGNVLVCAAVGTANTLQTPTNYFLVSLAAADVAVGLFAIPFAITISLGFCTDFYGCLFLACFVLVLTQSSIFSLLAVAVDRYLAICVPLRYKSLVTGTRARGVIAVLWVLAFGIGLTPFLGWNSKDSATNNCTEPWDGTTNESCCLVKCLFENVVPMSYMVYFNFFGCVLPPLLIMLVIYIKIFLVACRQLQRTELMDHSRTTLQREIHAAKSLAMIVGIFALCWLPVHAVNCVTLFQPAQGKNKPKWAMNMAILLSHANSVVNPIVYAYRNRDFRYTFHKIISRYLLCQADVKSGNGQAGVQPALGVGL
Assay type: functional, cell-based
In the case of Nc1sc(-c2cccc(C(=O)NCCCCCCNc3ncnc4c3ncn4[C@@H]3O[C@H](CO)[C@@H](O)[C@H]3O)c2)c(-c2cccc(C(F)(F)F)c2)c1C(=O)c1ccccc1, the EC50 is reported as 35.5 nM.
With Nc1sc(-c2ccc(C(=O)NCCCCCCCNc3ncnc4c3ncn4[C@@H]3O[C@H](CO)[C@@H](O)[C@H]3O)cc2)c(-c2cccc(C(F)(F)F)c2)c1C(=O)c1ccccc1 the EC50 was 468 nM.
For Nc1sc(-c2ccc(C(=O)NCCCCCNc3ncnc4c3ncn4[C@@H]3O[C@H](CO)[C@@H](O)[C@H]3O)cc2)c(-c2cccc(C(F)(F)F)c2)c1C(=O)c1ccccc1, the EC50 was 63.1 nM.

These molecules were tested against T4, Adenosine receptor A2b (Homo sapiens) (UniProt P29275) (assay: Agonist activity at human A2BAR expressed in FlpIn-CHO cells assessed as […] cAMP accumulation preincubated for 40 mins followed by forskolin addition measured after 30 mins by Alphascreen assay relative to control).
T4 sequence (whole entry): T3 sequence (P29275 whole entry)
Assay type: functional, cell-based
In the case of Nc1sc(-c2cccc(C(=O)NCCCCCCNc3ncnc4c3ncn4[C@@H]3O[C@H](CO)[C@@H](O)[C@H]3O)c2)c(-c2cccc(C(F)(F)F)c2)c1C(=O)c1ccccc1, the Emax is reported as 43%.
Nc1sc(-c2ccc(C(=O)NCCCCCCCNc3ncnc4c3ncn4[C@@H]3O[C@H](CO)[C@@H](O)[C@H]3O)cc2)c(-c2cccc(C(F)(F)F)c2)c1C(=O)c1ccccc1 was tested, and the Emax was 38%.
Nc1sc(-c2ccc(C(=O)NCCCCCNc3ncnc4c3ncn4[C@@H]3O[C@H](CO)[C@@H](O)[C@H]3O)cc2)c(-c2cccc(C(F)(F)F)c2)c1C(=O)c1ccccc1 gave an Emax of 52%.

The molecules below were run against T5, Adenosine receptor A3 (Homo sapiens, UniProt P0DMS8) (assay: Agonist activity at human A3AR expressed in FlpIn-CHO cells assessed as inhibition of forskolin-stimulated cAMP accumulation preincubated for 10 mins followed by forskolin addition measured after 30 mins by Alphascreen assay).
T5 sequence (P0DMS8 whole entry): T2 sequence (whole entry)
For Nc1sc(-c2cccc(C(=O)NCCCCCCNc3ncnc4c3ncn4[C@@H]3O[C@H](CO)[C@@H](O)[C@H]3O)c2)c(-c2cccc(C(F)(F)F)c2)c1C(=O)c1ccccc1, the EC50 was 123 nM.
Nc1sc(-c2ccc(C(=O)NCCCCCCCNc3ncnc4c3ncn4[C@@H]3O[C@H](CO)[C@@H](O)[C@H]3O)cc2)c(-c2cccc(C(F)(F)F)c2)c1C(=O)c1ccccc1 showed an EC50 of 331 nM.
Molecule Nc1sc(-c2ccc(C(=O)NCCCCCNc3ncnc4c3ncn4[C@@H]3O[C@H](CO)[C@@H](O)[C@H]3O)cc2)c(-c2cccc(C(F)(F)F)c2)c1C(=O)c1ccccc1 has an EC50 greater than 1000 nM.

What follows are molecules tested against T1, Adenosine receptor A1 (assay: Agonist activity at human A1AR expressed in FlpIn-CHO cells assessed as inhibition of forskolin-stimulated cAMP accumulation preincubated for 10 mins followed by forskolin addition measured after 30 mins by Alphascreen assay).
Assay type: functional, cell-based
Nc1sc(-c2cccc(C(=O)NCCCCCCNc3ncnc4c3ncn4[C@@H]3O[C@H](CO)[C@@H](O)[C@H]3O)c2)c(-c2cccc(C(F)(F)F)c2)c1C(=O)c1ccccc1 showed an EC50 of 105 nM.
Nc1sc(-c2ccc(C(=O)NCCCCCCCNc3ncnc4c3ncn4[C@@H]3O[C@H](CO)[C@@H](O)[C@H]3O)cc2)c(-c2cccc(C(F)(F)F)c2)c1C(=O)c1ccccc1 was tested, and the EC50 was 22.9 nM.
Nc1sc(-c2ccc(C(=O)NCCCCCNc3ncnc4c3ncn4[C@@H]3O[C@H](CO)[C@@H](O)[C@H]3O)cc2)c(-c2cccc(C(F)(F)F)c2)c1C(=O)c1ccccc1 gave an EC50 of 95.5 nM.

The molecules below were run against T1, Adenosine receptor A1 (assay: Agonist activity at human A1AR expressed in FlpIn-CHO cells assessed as intracellular calcium mobilization by Fluo-4 dye-based fluorescence assay).
Assay type: cell-based
Nc1sc(-c2cccc(C(=O)NCCCCCCNc3ncnc4c3ncn4[C@@H]3O[C@H](CO)[C@@H](O)[C@H]3O)c2)c(-c2cccc(C(F)(F)F)c2)c1C(=O)c1ccccc1 was tested, and the EC50 was 93.3 nM.
Work on Nc1sc(-c2ccc(C(=O)NCCCCCCCNc3ncnc4c3ncn4[C@@H]3O[C@H](CO)[C@@H](O)[C@H]3O)cc2)c(-c2cccc(C(F)(F)F)c2)c1C(=O)c1ccccc1 yielded an EC50 of 200 nM.
In the case of Nc1sc(-c2ccc(C(=O)NCCCCCNc3ncnc4c3ncn4[C@@H]3O[C@H](CO)[C@@H](O)[C@H]3O)cc2)c(-c2cccc(C(F)(F)F)c2)c1C(=O)c1ccccc1, the EC50 is reported as 74.1 nM.
